Test results: patent US20260008862A1, “Bispecific Anti-BCMA x Anti-CD3 Antibodies and Uses Thereof” (Regeneron Pharmaceuticals, Inc., priority 2018, published 2026)
Like-named read-outs stand apart in the source and are kept apart here.

Legend:
[1] = system: Jurkat/NFATLuc.3C7 cells + NCI-H929 cells; assay: Jurkat/NFATLuc reporter bioassay with NCI-H929 cells; type: cell-based; conditions: highest RLU / lowest RLU
Description: Activity of the anti-BCMA×anti-CD3 bispecific antibodies were assessed in a Jurkat/NFATLuc reporter bioassay utilizing several cell lines with varying levels of BCMA surface expression. The Jurkat cells were engineered to express an NFAT-luciferase reporter (Jurkat/NFATLuc.3C7), and 50,000 Jurkat reporter cells were combined with 50,000 BCMA positive (Daudi, MM1-S, NCI-H929, OPM-2, RPMI-8226, MOLP-8, or Raji) or BCMA negative (HEK293) cells in Thermo Nunclon delta 96 well white microwell plates (Thermo Scientific, Cat #136102) in 50 ul of assay media (RPMI media with 10% FBS and 1% P/S/G). Three-fold serial dilutions of the BCMA×CD3 bispecific antibodies (mAb25441 D or mAb25442D), or a bivalent anti-BCMA antibody (mAb21581) were immediately added in 50 μL of assay buffer. The plates were gently agitated and incubated in a 37° C., 5% CO2 incubator for 4-6 hours. NFAT-Luciferase activity was determined using Promega One-Glo (Cat #E6130) and a Perkin Elmer Envision plate reader. RLU were plotted in GraphPad Prism using a four-parameter logistic equation over a 12-point response curve to calculate EC50 values. […] The signal to noise (S:N) is determined by taking the ratio of the highest RLU on the curve to the lowest.

[2] = system: BCMA+ MOLP-8-luciferase tumors; assay: MOLP-8-luciferase intravenous xenogenic tumor model, BLI (Example 14); type: in vivo, mouse; conditions: 4 mg/kg on days 0, 3 and 7
Description: To determine the in vivo efficacy of anti-BCMA×anti-CD3 bispecific antibodies (Abs), a xenogenic tumor study was performed. On day −11, immunodeficient NOD.Cg-Prkdc^scidIl2rg^tm1Wji/SzJ (NSG) mice were intraperitoneally injected with 4×10^6 human peripheral blood mononuclear cells (PBMC) from a normal, healthy donor. On day 0, the mice were intravenously administered 2×10^6 BCMA^+ MOLP-8 human multiple myeloma tumor cells that were engineered to also express firefly luciferase (MOLP-8-luciferase cells). […] The mice were administered these Abs twice more on days 3 and 7, for a total of three doses. Tumor growth was assessed over 48 days by measuring tumor bioluminescence (BLI) in anesthetized animals. As a positive control, a group of mice (n=5) was given only MOLP-8-luciferase cells, but not PBMC or antibody.
Implantation and measurement of xenogenic tumors: On day −11, immunodeficient NOD.Cg-Prkdc^scidIl2rg^tm1Wji/SzJ (NSG) mice were intraperitoneally injected with 5×10^6 human PBMC from a normal, healthy donor. […] Tumor growth was assessed over 48 days by measuring tumor BLI in anesthetized animals. […]
Measurement of xenogenic tumor growth: BLI imaging was used to measure tumor burden. […] Image acquisition was carried out with the field of view at D, subject height of 1.5 cm, and medium binning level with automatic exposure time determined by the Living Image Software. […]

[3] = system: primary human plasma cells (CD138+); assay: Autologous T cell-mediated killing of human plasma cells; type: cell-based
Description: (§1) The specific killing of enriched CD138^+ human or cynomolgus monkey plasma cells by unstimulated autologous T cells was assessed by flow cytometry. Human or cynomolgus bone marrow aspirates and blood were provided within 24 hours of harvest. CD138^+ plasma cells were enriched from bone marrow by positive selection using the EasySep™ Human CD138^+ Positive Selection kit according to the manufacturer's instructions. PBMC from whole blood were isolated by density separation. PBMC were labeled with 1 μM of Vybrant™ CFDA-SE fluorescent tracking dye. […] At the end of the culture, surviving CD138^+ plasma cells were analyzed by flow cytometry, utilizing fixable LIVE/DEAD dye and plasma cell specific cell surface markers. Percent viability was normalized to control condition (plasma cells in the presence of PBMC only). T cell activation was assessed by flow cytometry. Activation is reported as the percentage of CD2^+/CD4^+ or CD2^+/CD8^+/CD16^− T cells expressing CD25. Percent T cell activation was normalized to control condition (plasma cells in the presence of PBMC only).

[4] = system: primary cynomolgus plasma cells (CD138+); assay: Autologous T cell-mediated killing of cynomolgus monkey plasma cells; type: cell-based
Description: as §1

MC38/BCMA tumors = assay: Syngenic MC38/BCMA tumor model, combination with anti-PD-1 (Example 20); type: in vivo; conditions: REGN5458 0.04 or 0.24 mg/kg plus anti-mouse PD-1 (Clone RPM1-14) 4 mg/kg
Description: Implantation and measurement of syngenic tumors: C57BL/6 mice that express human CD3deg in place of murine CD3deg (CD3-humanized mice) were subcutaneously implanted with 1×10^6 MC38 colon carcinoma cells that have been engineered to express full-length human BCMA (MC38/BCMA).
The mice were administered these Abs twice more on days 7 and 11 for a total of three doses, and tumor growth was assessed throughout the experiment.
Calculation of syngenic tumor growth and inhibition: In order to determine tumor volume by external caliper, the greatest longitudinal diameter (length in mm) and the greatest transverse diameter (width in mm) were determined. Tumor volumes based on caliper measurements were calculated by the formula: Volume (mm^3)=(length×width^2)/2.

[5] = Cynomolgus Monkey Donor 1 plasma cells, autologous T cells, maximum

## REGN5458: anti-BCMA×anti-CD3 bispecific antibody: BCMA HCVR of mAb21581 (SEQ 66), CD3 HCVR of mAb7221G (SEQ 90), common LCVR SEQ 82
[1]
  S:N: 39
[2]
  tumor growth (in words): delayed the growth
[3]; Human Donor 1 plasma cells, autologous primary human T cells, E:T 10:1, 72 hours
  Cytotoxic Kill Max % Cytotoxicity: 91%
[3]; Human Donor 1 plasma cells, autologous primary human T cells, read-out: T Cell Activation (% CD25 Upregulation) CD8+ T cells EC50
  EC50: 0.214 nM
[3]; Human Donor 2 plasma cells, autologous primary human T cells, E:T 10:1, 72 hours
  Cytotoxic Kill Max % Cytotoxicity: 89%
[3]; Human Donor 2 plasma cells, autologous primary human T cells, E:T 10:1, 72 hours, read-out: Cytotoxic Kill EC50
  EC50: 0.191 nM
[3]; Human Donor 2 plasma cells, autologous primary human T cells, maximum
  T Cell Activation (% CD25 Upregulation) CD8+ T cells % Activation: 36%
[3]; human donor 1
  maximum percent cytotoxicity: 91%
[3]; human donor 1, CD25, read-out: CD8+ T cell activation EC50
  EC50: 0.214 nM
[3]; human donor 1, read-out: cytotoxicity EC50
  EC50: 0.0428 nM
[3]; human donor 2
  maximum percent CD8+ T cell activation: 36%
  maximum percent cytotoxicity: 89%
[3]; human donor 2, CD25, read-out: CD8+ T cell activation EC50
  EC50: 0.86 nM
[3]; human donor 2, read-out: cytotoxicity EC50
  EC50: 0.191 nM
[4]; [5]
  T Cell Activation (% CD25 Upregulation) CD4+ T cells % Activation: 9%
  T Cell Activation (% CD25 Upregulation) CD8+ T cells % Activation: 12%
[4]; Cynomolgus Monkey Donor 1 plasma cells, autologous T cells, read-out: T Cell Activation (% CD25 Upregulation) CD8+ T cells EC50
  EC50: 22.4 nM
[4]; Cynomolgus Monkey Donor 1 plasma cells, autologous primary cynomolgus T cells, E:T 10:1, 72 hours
  Cytotoxic Kill Max % Cytotoxicity: 94%
[4]; Cynomolgus Monkey Donor 1 plasma cells, autologous primary cynomolgus T cells, E:T 10:1, 72 hours, read-out: Cytotoxic Kill EC50
  EC50: 1.31 nM
[4]; Cynomolgus Monkey Donor 2 plasma cells, autologous T cells, maximum
  T Cell Activation (% CD25 Upregulation) CD4+ T cells % Activation: 16%
[4]; Cynomolgus Monkey Donor 2 plasma cells, autologous T cells, read-out: T Cell Activation (% CD25 Upregulation) CD4+ T cells EC50
  EC50: ~18.1 nM
[4]; Cynomolgus Monkey Donor 2 plasma cells, autologous primary cynomolgus T cells, E:T 10:1, 72 hours
  Cytotoxic Kill Max % Cytotoxicity: 91%
[4]; cynomolgus donor 1
  maximum percent T cell activation, CD4+ T cells: 9%
  maximum percent T cell activation, CD8+ T cells: 12%
  maximum percent cytotoxicity: 94%
[4]; cynomolgus donor 1, read-out: CD4+ T cell activation EC50
  EC50: 28.1 nM
[4]; cynomolgus donor 1, read-out: CD8+ T cell activation EC50
  EC50: 22.4 nM
[4]; cynomolgus donor 1, read-out: cytotoxicity EC50
  EC50: 1.31 nM
[4]; cynomolgus donor 2
  maximum percent T cell activation, CD4+ T cells: 16%
  maximum percent cytotoxicity: 91%
[4]; cynomolgus donor 2, read-out: CD4+ T cell activation EC50
  EC50: 18.1 nM
[4]; cynomolgus donor 2, read-out: CD8+ T cell activation EC50
  EC50: 76.7 nM
MC38/BCMA tumors
  anti-tumor efficacy of the combination (in words): superior anti-tumor efficacy
